# Assay results published in patent US20250090576A1, “METHODS FOR TREATING NONTUBERCULOUS MYCOBACTERIA DISEASES” (Microbion Corporation, priority 2022, published 2025).
# Where two headings read alike, the source gives them in different places.
# Experiments:
# [1] = tested on: M. abscessus strain 19977; experiment: MIC broth dilution, growth by turbidity/OD 595 nm; format: cell-based; conditions: for Sensitivity phenotype (R/I/S): 19977; for MIC: Mycobacteroides abscessus
# Experimental: (§1) Mycobacteria strains were used to determine MICs of BisEDT and amikacin. Strains included cystic fibrosis patient isolates from National Jewish Hospital. A range of high dose to low dose of antibiotics was used to determine bacteria susceptibility. M. avium strain 104, M. avium strain 3388, and CF patient strain DNA00133 were grown to log phase (7 days) while M. abscessus strain 19977, CF patient strain DNA00703, and CF patient strain DNA01715 achieved log phase (4 days) on 7H10 middlebrook media plates supplemented with 10% OADC (Oleic acid, Albumin, Dextrose, Catalase). […] For BisEDT, two types of compound physical states were tested. First, BisEDT was solubilized in DMSO (furthermore labeled soluble BisEDT). Second, BisEDT was made in suspension to mimic in vivo studies (furthermore labeled insoluble BisEDT). […] Control tubes containing no antibiotics were also included for each antibiotic tested. Inoculums of […] bacteria for each strain was measured with optical density (O.D.) at 595 nm. 10 μl of these inoculums were added to each antibiotic tube and incubated in a shaking incubator at 37° C. and 200 rpm. Slow growing stains were measured for growth after 10 days incubation while fast growing strains were incubated for 5 days. After incubation, 100 μl from each tube was pulled and placed in a 96-well plate for O.D. reading. Turbidity determined sensitive, intermediate, or resistant bacteria.
# [2] = tested on: M. avium strain 104 (MAH 104); experiment: MIC broth dilution, growth by turbidity/OD 595 nm; format: cell-based; conditions: for Sensitivity phenotype (R/I/S): MAH 104; for MIC: Mycobacterium avium
# Experimental: as §1
# [3] = tested on: M. avium strain 3388 (MAH 3388); experiment: MIC broth dilution, growth by turbidity/OD 595 nm; format: cell-based; conditions: for Sensitivity phenotype (R/I/S): MAH 3388; for MIC: Mycobacterium avium
# Experimental: as §1
# [4] = tested on: CF patient strain DNA00133; experiment: MIC broth dilution, growth by turbidity/OD 595 nm; format: cell-based, M. avium; conditions: for MIC: Mycobacterium avium
# Experimental: as §1
# M. abscessus MABS1 = experiment: MIC (Table 8); format: cell-based; conditions: Mycobacteroides abscessus
# M. abscessus MABS4 = experiment: MIC (Table 8); format: cell-based; conditions: Mycobacteroides abscessus
# M. abscessus MABS7 = experiment: MIC (Table 8); format: cell-based; conditions: Mycobacteroides abscessus
# M. abscessus MABS11 = experiment: MIC (Table 8); format: cell-based; conditions: Mycobacteroides abscessus
# [5] = tested on: M. abscessus biofilm (six clinical isolates); experiment: MBEC assay, summary over six clinical isolates; format: cell-based; conditions: at high concentrations (amikacin, clarithromycin: apart from MABS4)
# Source text: In this study the MBEC assay was followed as described in the Innovotech Procedural Manual, version 2.1 with minor modifications to assess the antibiofilm activity of the antimicrobial compounds under investigation. The MBEC value refers to the Minimum Biofilm Eradication Concentration of each antimicrobial for each strain. The MBEC value is defined as the minimum antibiotic concentration where the optical density (OD) value at recovery is less than 10% of the control OD value and there is no growth observed with visual examination of the wells.
# Step 1: Inoculation. For resuscitation, all strains were streaked on TSA plates, except for the mycobacteria which were streaked on 7H10 media, from the frozen stocks, and grew overnight at 37° C. (Table 6). From the plate, one colony was picked for inoculation in organism specific medium (OSM) and grown in a shaker incubator at 37° C. at 225 RPM until mid-log phase (OD 0.2-0.8). At mid log phase the culture was diluted in OSM medium (Table 6) to an OD of 0.05. 150 μL of it were aliquoted in each corresponding well in a 96-well MBEC plate (inoculation plate). Subsequently, the MBEC plates were incubated static at 37° C. for the appropriate time for each species (Table 7). During incubation, biofilm formed on the pegs.
# Step 2: Challenge. Following incubation, the peg lid with the biofilm was washed twice in PBS and placed on a second 96-well plate with 200 μl of antibiotic dilutions (challenge plate). The challenge plate was then incubated at 37° C. for 18 h to allow exposure of the biofilm to antibiotics.
# Step 3: Recovery. […] The recovery of resistant cells was assessed by an end-point measurement of the optical density at 600 nm (OD600) for each well with a plate reader (FIG. 4).
# This is possibly, in part, due to the variable clumping of the cells observed in the biofilm biomass on the pegs. The clumping of the cells also impacted the OD readings. […] For replicate experiments with variable results, the final MBEC values were determined based on the higher MBEC concentration observed among the replicates.
smiles,measurement,setting,value
NCC[C@H](O)C(=O)N[C@@H]1C[C@H](N)[C@@H](O[C@H]2O[C@H](CN)[C@@H](O)[C@H](O)[C@H]2O)[C@H](O)[C@H]1O[C@H]1O[C@H](CO)[C@@H](O)[C@H](N)[C@H]1O [amikacin],Sensitivity phenotype (R/I/S),[1]; 1 μg/mL,R
same,Sensitivity phenotype (R/I/S),[1]; 2 μg/mL,R
same,Sensitivity phenotype (R/I/S),[1]; 4 μg/mL,R
same,Sensitivity phenotype (R/I/S),[1]; 8 μg/mL,R
same,Sensitivity phenotype (R/I/S),[1]; 16 μg/mL,R
same,Sensitivity phenotype (R/I/S),[1]; 32 μg/mL,S
same,Sensitivity phenotype (R/I/S),[1]; 64 μg/mL,S
same,Sensitivity phenotype (R/I/S),[1]; 128 μg/mL,S
same,MIC,"[1]; M. abscessus strain 19977 (Table 4), read-out: MIC determined for the strain, used for treatment of infected macrophages",32 µg/mL
same,MIC,"[1]; M. abscessus strain 19977, read-out: MIC",32 µg/mL
same,Sensitivity phenotype (R/I/S),[2]; 1 μg/mL,R
same,Sensitivity phenotype (R/I/S),[2]; 2 μg/mL,R
same,Sensitivity phenotype (R/I/S),[2]; 4 μg/mL,R
same,Sensitivity phenotype (R/I/S),[2]; 8 μg/mL,S
same,Sensitivity phenotype (R/I/S),[2]; 16 μg/mL,S
same,Sensitivity phenotype (R/I/S),[2]; 32 μg/mL,S
same,Sensitivity phenotype (R/I/S),[2]; 64 μg/mL,S
same,Sensitivity phenotype (R/I/S),[2]; 128 μg/mL,S
same,MIC,"[2]; M. avium strain 104 (Table 3), read-out: MIC determined for the strain, used for treatment of infected macrophages",8 µg/mL
same,MIC,"[2]; M. avium strain 104, read-out: MIC",8 µg/mL
same,Sensitivity phenotype (R/I/S),[3]; 1 μg/mL,R
same,Sensitivity phenotype (R/I/S),[3]; 2 μg/mL,R
same,Sensitivity phenotype (R/I/S),[3]; 4 μg/mL,I
same,Sensitivity phenotype (R/I/S),[3]; 8 μg/mL,S
same,Sensitivity phenotype (R/I/S),[3]; 16 μg/mL,S
same,Sensitivity phenotype (R/I/S),[3]; 32 μg/mL,S
same,Sensitivity phenotype (R/I/S),[3]; 64 μg/mL,S
same,Sensitivity phenotype (R/I/S),[3]; 128 μg/mL,S
same,MIC,"[3]; M. avium strain 3388 (Table 3), read-out: MIC determined for the strain, used for treatment of infected macrophages",8 µg/mL
same,MIC,"[3]; M. avium strain 3388, read-out: MIC",8 µg/mL
same,Sensitivity phenotype (R/I/S),[4]; 1 μg/mL,R
same,Sensitivity phenotype (R/I/S),[4]; 2 μg/mL,R
same,Sensitivity phenotype (R/I/S),[4]; 4 μg/mL,R
same,Sensitivity phenotype (R/I/S),[4]; 8 μg/mL,R
same,Sensitivity phenotype (R/I/S),[4]; 16 μg/mL,R
same,Sensitivity phenotype (R/I/S),[4]; 32 μg/mL,R
same,Sensitivity phenotype (R/I/S),[4]; 64 μg/mL,R
same,Sensitivity phenotype (R/I/S),[4]; 128 μg/mL,R
same,MIC,[4],> 128 µg/mL
same,MIC,"[4]; M. avium strain 1333 (Table 3), read-out: MIC determined for the strain, used for treatment of infected macrophages",8 µg/mL
same,MIC,M. abscessus MABS1,16 µg/mL
same,MIC,M. abscessus MABS4,4 µg/mL
same,MIC,M. abscessus MABS7,2 µg/mL
same,MIC,M. abscessus MABS11,1 µg/mL
same,"biofilm susceptibility, in words",[5],resistance
